Columns and labels:
Assay in all cases: relative viability (nuclei count vs DMSO), 5 days (fraction); higher = more cells survive
[1] = compound: Cc1ccc(C(=O)Nc2ccc(CN3CCN(C)CC3)c(C(F)(F)F)c2)cc1C#Cc1cnc2cccnn12 [Ponatinib] + O=C(CCCCCCC(=O)Nc1ccccc1)NO [Vorinostat] (partner 1 µM)
Procedure, shortened: (§1)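 Relative viability was taken as the ratio of nuclei in treated wells to nuclei in vehicle wells. Lung cancer cell lines in 1536-well plates received compounds by pin tool one day after seeding, either one drug alone or a fixed anchor-drug dose plus five library-drug doses (not always all listed) in √10 steps. Nuclei were counted on 4× images after 5 days of treatment, and values are medians of duplicate plates.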

[2] = compound: Cc1ccc(Nc2nccc(N(C)c3ccc4c(C)n(C)nc4c3)n2)cc1S(N)(=O)=O [Pazopanib] + Nc1ncn([C@H]2C[C@H](O)[C@@H](CO)O2)c(=O)n1 [Decitabine] (partner 2 µM)
Procedure, shortened: as §1

[3] = compound: Cc1ccc(Nc2nccc(N(C)c3ccc4c(C)n(C)nc4c3)n2)cc1S(N)(=O)=O [Pazopanib] + O=C(CCCCCCC(=O)Nc1ccccc1)NO [Vorinostat] (partner 1 µM)
Procedure, shortened: as §1

[4] = compound: Cc1ccc(Nc2nccc(N(C)c3ccc4c(C)n(C)nc4c3)n2)cc1S(N)(=O)=O [Pazopanib] + Cc1nc(Nc2ncc(C(=O)Nc3c(C)cccc3Cl)s2)cc(N2CCN(CCO)CC2)n1 [Dasatinib] (partner 0.075 µM)
Procedure, shortened: as §1

Cell Line	relative viability ([1]; first compound 0.002 µM)	relative viability ([1]; first compound 0.006325 µM)	relative viability ([1]; first compound 0.06325 µM)	relative viability ([1]; first compound 0.2 µM)	relative viability ([2]; first compound 0.1 µM)	relative viability ([2]; first compound 0.3162 µM)	relative viability ([2]; first compound 1 µM)	relative viability ([3]; first compound 0.1 µM)	relative viability ([3]; first compound 0.3162 µM)	relative viability ([3]; first compound 1 µM)	relative viability ([4]; first compound 0.01 µM)	relative viability ([4]; first compound 0.03162 µM)	relative viability ([4]; first compound 0.1 µM)	relative viability ([4]; first compound 0.3162 µM)	relative viability ([4]; first compound 1 µM)	relative viability ([2]; first compound 0.01 µM)	relative viability ([2]; first compound 0.03162 µM)	relative viability ([3]; first compound 0.01 µM)	relative viability ([3]; first compound 0.03162 µM)
NCI-H1648	0.381	0.335	0.455	0.462	0.528	0.568	0.46	0.337	0.535	0.376	–	–	–	–	–	–	–	–	–
NCI-H1395	0.483	0.578	0.678	0.416	0.638	0.766	0.743	0.673	0.734	1.07	0.398	0.487	0.362	0.452	0.432	0.651	0.69	0.586	0.768
NCI-H2347	0.496	0.554	0.643	0.504	0.673	0.732	0.666	0.736	0.587	0.83	0.27	0.307	0.303	0.353	0.331	0.68	0.555	0.522	0.593
HCC-366	0.329	0.318	0.416	0.317	0.378	0.326	0.473	0.414	0.379	0.81	0.421	0.655	0.762	0.676	0.733	0.384	0.302	0.239	0.336
201T	0.965	0.992	1.05	0.939	0.866	0.879	0.838	0.937	1.02	0.843	0.526	0.424	0.568	0.545	0.666	0.831	0.886	0.892	0.949
HCC-827	0.736	0.78	0.821	0.801	0.293	0.355	0.348	0.843	0.922	0.785	0.286	0.27	0.284	0.399	0.324	0.333	0.322	0.895	0.839
NCI-H650	0.3	0.441	0.444	0.447	0.353	0.293	0.353	0.398	0.364	0.485	0.398	0.511	0.449	0.427	0.482	0.303	0.299	0.381	0.466
NCI-H2023	0.661	0.634	0.851	0.593	0.228	0.206	0.265	0.745	0.637	0.827	0.528	0.566	0.473	0.535	0.577	0.206	0.236	0.551	0.712
NCI-H596	0.659	0.7	0.556	0.522	1.14	1.12	0.966	0.578	0.691	0.642	–	0.617	0.454	0.6	0.575	0.996	1.08	0.598	0.634
SK-LU-1	0.699	0.76	0.832	0.702	0.633	0.632	0.665	0.755	0.621	0.861	0.142	0.179	0.192	0.189	0.174	0.568	0.611	0.756	0.852
A-427	0.829	0.904	1.03	0.881	0.554	0.533	0.613	0.825	0.903	0.971	0.652	0.72	0.614	0.694	0.701	0.554	0.538	0.862	0.941
NCI-H460	0.665	0.657	0.74	0.664	0.551	0.488	0.552	0.749	0.677	0.723	0.274	0.472	0.566	0.603	0.758	0.561	0.513	0.719	0.765
NCI-H1792	–	–	–	–	0.456	0.621	0.524	–	–	–	–	0.728	0.681	0.834	0.774	–	0.549	–	–
SW 1573	0.564	0.737	0.835	0.575	0.607	0.528	0.7	0.648	0.992	0.525	0.588	0.717	0.621	0.451	0.561	0.465	0.52	0.641	0.692
RERF-LC-KJ	0.601	0.767	0.881	0.635	0.739	0.631	0.699	0.622	0.601	0.596	0.836	0.773	0.915	0.722	0.765	0.66	0.681	0.63	0.79
EMC-BAC-2	0.288	0.337	0.427	0.368	0.999	0.974	1.16	0.232	0.472	0.432	–	0.381	0.308	0.305	0.312	–	1.01	–	0.512
LK-2	0.261	0.284	0.341	0.345	0.324	0.243	0.277	0.252	0.236	0.235	–	0.305	0.317	0.373	0.314	0.228	0.318	0.201	0.26
NCI-H2126	0.784	0.777	0.988	0.789	0.614	0.561	0.643	0.76	0.822	0.732	0.528	0.528	0.607	0.594	0.615	0.517	0.59	0.588	0.747
NCI-H322M	0.882	0.823	0.833	0.741	0.71	0.8	0.754	0.765	0.948	0.995	0.265	0.258	0.257	0.275	0.277	0.696	0.748	0.916	0.989
NCI-H1975	0.669	0.71	0.688	0.579	0.394	0.401	0.374	0.805	0.723	0.754	0.371	0.359	0.336	0.415	0.359	0.374	0.373	0.712	0.76

Cell Line	relative viability ([1]; first compound 0.002 µM)	relative viability ([1]; first compound 0.006325 µM)	relative viability ([1]; first compound 0.06325 µM)	relative viability ([1]; first compound 0.2 µM)	relative viability ([2]; first compound 0.1 µM)	relative viability ([2]; first compound 0.3162 µM)	relative viability ([2]; first compound 1 µM)	relative viability ([3]; first compound 0.1 µM)	relative viability ([3]; first compound 0.3162 µM)	relative viability ([3]; first compound 1 µM)	relative viability ([4]; first compound 0.01 µM)	relative viability ([4]; first compound 0.03162 µM)	relative viability ([4]; first compound 0.1 µM)	relative viability ([4]; first compound 0.3162 µM)	relative viability ([4]; first compound 1 µM)	relative viability ([2]; first compound 0.01 µM)	relative viability ([2]; first compound 0.03162 µM)	relative viability ([3]; first compound 0.01 µM)	relative viability ([3]; first compound 0.03162 µM)
NCI-H2170	0.679	0.808	0.843	0.781	0.453	0.449	0.428	0.877	0.796	0.829	0.536	0.572	0.537	0.511	0.639	0.47	0.467	0.624	0.848
LU99A	0.439	0.519	0.535	0.611	0.935	0.953	0.961	0.459	0.545	0.554	0.425	0.545	0.622	0.54	0.503	–	0.916	–	0.493
NCI-H2405	0.896	0.906	1.01	0.822	0.8	0.858	0.814	0.93	1.11	1.16	0.222	0.227	0.147	0.256	0.249	0.724	0.774	0.925	1.16
NCI-H2009	0.666	0.783	0.694	0.585	0.396	0.343	0.382	0.757	0.692	0.765	0.279	0.324	0.298	0.335	0.226	0.334	0.387	0.72	0.744
HCC-15	0.826	0.829	0.949	0.809	0.572	0.59	0.827	0.867	0.893	0.791	0.543	0.631	0.612	0.67	0.692	0.53	0.712	0.878	0.906
HCC-44	1.1	1.07	1.07	1.07	0.941	0.984	1	1.08	1.04	1.15	–	–	–	–	–	0.913	0.949	1.11	1.01
COR-L23	0.31	0.403	0.52	0.462	0.442	0.459	0.49	0.424	0.508	0.514	0.512	0.503	0.553	0.449	0.56	0.457	0.43	0.446	0.5
HCC-78	0.458	0.486	0.497	0.406	0.648	0.691	0.818	0.433	0.412	0.446	0.328	0.383	0.362	0.429	0.339	–	0.729	–	0.455
NCI-H838	0.755	0.764	0.773	0.664	0.507	0.414	0.523	0.816	0.706	0.794	0.273	0.278	0.297	0.278	0.334	0.458	0.462	0.72	0.734
NCI-H2087	0.635	0.549	0.366	0.662	0.264	0.252	0.424	0.704	0.733	0.317	0.743	0.989	0.929	1.01	0.72	0.186	0.321	0.945	0.642
BEN	0.562	0.631	0.666	0.546	0.726	0.831	0.782	0.533	0.591	0.563	–	0.343	0.267	0.318	0.38	0.579	0.791	0.593	0.606
LCLC-103H	0.701	0.821	0.848	0.765	0.735	0.682	0.679	0.753	0.823	0.842	0.314	0.472	0.495	0.451	0.459	0.653	0.708	0.692	0.804
EKVX	0.762	0.822	0.927	0.826	0.324	0.356	0.472	0.79	0.742	0.604	0.63	0.53	0.54	0.592	0.601	0.374	0.303	0.674	0.731
NCI-H2228	0.658	0.588	0.7	0.575	–	–	–	0.706	0.59	0.619	0.589	0.561	0.383	0.481	0.457	–	–	1.12	1.01
NCI-H1563	–	–	–	–	–	–	–	–	–	–	0.473	0.451	0.471	0.485	0.5	–	–	–	–
A549	–	–	–	–	0.281	0.273	0.332	–	–	–	–	–	–	–	–	–	0.276	–	–
NCI-H1623	–	–	–	–	–	–	–	–	–	–	0.507	0.467	0.509	0.488	0.608	–	–	–	–
IA-LM	0.913	0.875	0.861	0.783	–	–	–	1.1	0.964	0.945	–	–	–	–	–	–	–	–	0.977
CAL-12T	0.958	0.666	0.864	0.876	–	–	–	0.744	0.754	0.834	0.308	0.412	0.312	0.458	0.462	–	–	0.742	0.649
